Reference: article PMC12005787, “Synthetic Lethality of SHP2 and XIAP Suppresses Proliferation and Metastasis in KRAS‐mutant Nonsmall Cell Lung Cancer” (Advanced Science, 2025)
pIC50: −log10 of the molar value. Like-named read-outs stand apart in the source and are kept apart here. *1 amine or outer side, *2 acyl side, *3 side chain or, on linkers, in order; H or OH if unused. Where a SMILES comes first, the peptide text is derived from it. Bridges are numbered along the chain shown (N, C = ends). Roman numbers before positions name the chains, in order. [ ]: non-standard residue; d: D form. Hexamethylenediamine = C(CCCN[*:2])CCN[*:1]; Dip = N[C@H](C(=O)O)C(c1ccccc1)c1ccccc1; Chg = N[C@H](C(=O)O)C1CCCCC1; NMeA = CN[C@@H](C)C(=O)O

Legend:
[1] = system: NCI-H2122, A549, and NCI-H1944 cells; test: Cell senescence β-galactosidase staining; assay type: cell-based, human; conditions: NCI‐H2122 cells; candidate drugs 10 μM
Description: Cell senescence β-galactosidase staining
NCI-H2122, A549, and NCI-H1944 cells in the logarithmic growth phase were seeded into 48-well plates and cultured overnight. The supernatant was aspirated and fresh serum-free (0%), low-serum (3%), or regular serum (10%) medium with different drugs was added for 48 h. When the supernatant was discarded, β-galactosidase staining fixation fluid were added for 15 min and β-galactosidase staining solution were imported overnight at 37 ℃.
Finally, the staining results were recorded using an inverted microscope.

SHP2 = biological target: T1, SHP2 (Homo sapiens, UniProt Q06124); test: Cellular thermal shift assay (CETSA); assay type: binding; conditions: NCI‐H2122 cell lysate
T1 construct: endogenous in cells; host or cells: NCI-H2122
T1 sequence (Q06124 1-593): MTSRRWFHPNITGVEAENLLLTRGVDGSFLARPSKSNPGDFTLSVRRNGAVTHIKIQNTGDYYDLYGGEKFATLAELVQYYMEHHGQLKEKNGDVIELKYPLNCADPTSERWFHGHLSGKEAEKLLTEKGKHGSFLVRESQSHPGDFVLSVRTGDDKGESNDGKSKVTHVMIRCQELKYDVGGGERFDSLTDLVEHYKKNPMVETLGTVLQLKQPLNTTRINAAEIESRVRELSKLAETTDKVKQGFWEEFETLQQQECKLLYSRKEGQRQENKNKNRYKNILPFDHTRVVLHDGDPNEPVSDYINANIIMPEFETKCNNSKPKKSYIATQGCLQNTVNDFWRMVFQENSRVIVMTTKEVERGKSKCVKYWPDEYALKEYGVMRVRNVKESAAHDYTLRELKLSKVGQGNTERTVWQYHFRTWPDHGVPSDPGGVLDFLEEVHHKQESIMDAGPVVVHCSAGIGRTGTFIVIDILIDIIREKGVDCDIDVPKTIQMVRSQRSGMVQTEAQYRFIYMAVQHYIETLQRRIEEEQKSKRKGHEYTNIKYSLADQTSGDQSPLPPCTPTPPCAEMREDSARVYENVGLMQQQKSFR
Description: NCI‐H2122 cells were harvested and resuspended with pre‐cooled PBS containing 1% cocktail, which was then frozen in liquid nitrogen for 5 min and thawed in a water bath at 37 °C for 5 min for three repetitions. The supernatant was collected via centrifugation at 4 °C (15 000 × g, 20 min), divided into two equal portions; one was added with test drugs or various concentrations of embelin, and the other was added with DMSO as control and subsequently incubated at 25 °C for 30 min. All samples were heated at temperatures ranging from 52–70 °C for 3 min, and subsequently in an ice bath for 3 min and collected by centrifugation at 4 °C (15 000 × g, 20 min), and added with protein sampling buffer at 100 °C for 5 min, followed by analysis of protein stability using western blotting.

A549 and NCI‐H2122 cells = test: Cell proliferation in monolayer culture (CCK-8); assay type: cell-based, human
Description: For the adherent cell viability assay, cells in the logarithmic growth phase were seeded in 96-well culture plates at a density of 5×103 well-1 and incubated overnight. Diluted compounds or DMSO were added, or specific treatments were incubated at 37 °C and 5% CO2 for 24 h or 48 h. Cell viability was determined using CCK-8 or CellLightTM Cell Viability Assay Kit, according to the manufacturer's protocol. The luminescence signals of the treated samples were normalized to those of the DMSO group. […]
Figure S7. Targeting SHP2 and XIAP produces a synthetic lethal effect. (A) Effects of NSC-87877 on cell viability of A549 and NCI-H2122 cells after 24 and 48 h were determined using the CCK-8. Bars, ± SEM. The curves were plotted using a variable slope (four-parameter) non-linear fit. (B, E, F, and I) Effects of Na3VO4 (B), birinapant (E), BV-6 (F), and LCL161 (I) on cell viability of human NCI-H2122 cells at 48 h were determined using the CCK-8. *p < 0.05, **p < 0.01 and ***p < 0.001 compared to control group (unpaired two-tailed Student’s t-test).(C, G) Effects of SHP099 (C) and GDC-0152 (G) on cell viability after 24 and 48 h were determined using the CCK-8. Bars, ± SEM. The curves were plotted using a variable slope (four-parameter) non-linear fit.(D, H) Effects of SHP099 (D) and GDC-0152 (H) on cell viability were determined after 48 h using intracellular ATP chemiluminescence. **p < 0.01 and ***p < 0.001 compared to control group (unpaired two-tailed Student’s t-test).(J) Effects of SHP099 and GDC-0152 separately and in combination, and the effect of embelin for 24 h on the cell viability were assessed using intracellular ATP […]
tailed Student’s t-test).(K) Effects of SHP099 and GDC-0152 separately and in combination with […] on the cell viability of human KRAS-WT and -mutant cells were assessed using a colony formation assay. (L, M) A549 and NCI-H2122 cells were instantaneously transfected with siPTPN11 and siXIAP separately and together for 24 h under

HePTP = biological target: T2, HePTP (Homo sapiens, UniProt P35236); test: PTPs activity assay (DiFMUP); assay type: biochemical
T2 construct: His; made in house; host or cells: E. coli
T2 sequence (P35236 1-360): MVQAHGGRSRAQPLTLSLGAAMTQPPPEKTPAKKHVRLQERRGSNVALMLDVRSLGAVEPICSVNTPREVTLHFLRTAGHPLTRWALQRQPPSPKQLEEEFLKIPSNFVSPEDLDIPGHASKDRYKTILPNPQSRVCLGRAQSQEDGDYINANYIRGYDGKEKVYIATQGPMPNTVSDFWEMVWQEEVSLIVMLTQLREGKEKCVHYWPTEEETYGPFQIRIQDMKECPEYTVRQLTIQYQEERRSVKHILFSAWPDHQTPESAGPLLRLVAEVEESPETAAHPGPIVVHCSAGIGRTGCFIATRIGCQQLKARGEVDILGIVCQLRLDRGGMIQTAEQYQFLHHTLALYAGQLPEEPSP
Description: (§1) Catalytic activity screening methods for PTPs using candidate compounds were performed as previously described.^[ [77] ^] In brief, soluble fusion PTP proteins, His‐ΔSHP2, encompassing the peptide from amino acids 205–593 retaining PTP activity, His‐ΔSHP2^K325A, His‐ΔSHP1, encompassing the peptide from amino acids 202–595 retaining PTP activity, His‐PTP1B, His‐HePTP, His‐VHR, and His‐TCPTP were cloned, expressed, and purified in E. coli. After determining protein concentration using bicinchoninic acid (BCA) assay kit, 1 µg fusion protein, 10 µM library compound were added in 100 µL reaction mixture (55 mM 4‐(2‐hydroxyethyl)‐1‐piperazineethanesulfonic acid [HEPES], 100 mM sodium chloride [NaCl], 0.5 mM ethylenediaminetetraacetic acid [EDTA], 1 mM dithiothreitol [DTT], 0.01% Triton X‐100, 0.002% bovine serum albumin [BSA], and 0.1% dimethyl sulfoxide [DMSO]) and incubated at 37 °C for 30 min in the dark, with Na3VO4 as positive control. The detection substrate DiFMUP (50 µM) was promptly added to each reaction and functioned at 37 °C for 30 min in the dark. The fluorescence intensity was then measured using Multimode Plate Reader (λa = 358 nm, λe = 455 nm, PerkinElmer, USA).

PTP1B = biological target: T3, PTP1B (Homo sapiens, UniProt P18031); test: PTPs activity assay (DiFMUP); assay type: biochemical
T3 construct: His; made in house; host or cells: E. coli
T3 sequence (P18031 1-435): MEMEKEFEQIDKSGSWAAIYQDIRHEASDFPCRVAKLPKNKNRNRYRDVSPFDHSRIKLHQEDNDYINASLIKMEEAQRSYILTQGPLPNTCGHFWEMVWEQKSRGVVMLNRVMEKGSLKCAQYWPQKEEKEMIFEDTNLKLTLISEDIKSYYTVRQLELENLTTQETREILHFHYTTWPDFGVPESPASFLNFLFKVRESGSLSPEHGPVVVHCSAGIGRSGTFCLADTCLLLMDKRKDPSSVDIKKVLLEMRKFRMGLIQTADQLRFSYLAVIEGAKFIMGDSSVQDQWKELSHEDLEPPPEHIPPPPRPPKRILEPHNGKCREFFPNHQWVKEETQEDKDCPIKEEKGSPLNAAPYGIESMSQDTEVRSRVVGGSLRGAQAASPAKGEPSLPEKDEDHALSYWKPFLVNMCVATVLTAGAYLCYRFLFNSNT
Description: as §1

TCPTP = biological target: T4, TCPTP (Homo sapiens, UniProt P17706); test: PTPs activity assay (DiFMUP); assay type: biochemical
T4 construct: His; made in house; host or cells: E. coli
T4 sequence (P17706 1-415): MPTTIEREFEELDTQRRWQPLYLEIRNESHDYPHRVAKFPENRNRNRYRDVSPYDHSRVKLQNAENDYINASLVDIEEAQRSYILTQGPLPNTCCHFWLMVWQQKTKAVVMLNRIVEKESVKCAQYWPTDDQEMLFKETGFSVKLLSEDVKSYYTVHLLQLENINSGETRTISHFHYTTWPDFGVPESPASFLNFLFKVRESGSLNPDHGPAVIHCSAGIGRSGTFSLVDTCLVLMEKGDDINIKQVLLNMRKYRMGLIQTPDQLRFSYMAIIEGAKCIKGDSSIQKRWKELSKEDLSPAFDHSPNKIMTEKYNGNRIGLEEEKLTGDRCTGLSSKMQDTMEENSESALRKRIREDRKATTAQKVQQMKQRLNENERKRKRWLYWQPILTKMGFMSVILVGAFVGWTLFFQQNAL
Description: as §1

VHR = biological target: T5, VHR (Homo sapiens, UniProt P51452); test: PTPs activity assay (DiFMUP); assay type: biochemical
T5 construct: His; made in house; host or cells: E. coli
T5 sequence (P51452 whole entry): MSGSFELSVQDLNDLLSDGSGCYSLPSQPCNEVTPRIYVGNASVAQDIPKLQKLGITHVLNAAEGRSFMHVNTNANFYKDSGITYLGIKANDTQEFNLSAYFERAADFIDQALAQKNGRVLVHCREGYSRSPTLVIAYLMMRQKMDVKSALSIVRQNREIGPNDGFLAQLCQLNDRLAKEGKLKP
Description: as §1

ΔSHP1 = biological target: T6, ΔSHP1 (Homo sapiens, UniProt P29350); test: PTPs activity assay (DiFMUP); assay type: biochemical
T6 construct: His‐ΔSHP1, encompassing the peptide from amino acids 202–595 retaining PTP activity; His; made in house; host or cells: E. coli
T6 sequence (P29350 202-595, stated change not applied): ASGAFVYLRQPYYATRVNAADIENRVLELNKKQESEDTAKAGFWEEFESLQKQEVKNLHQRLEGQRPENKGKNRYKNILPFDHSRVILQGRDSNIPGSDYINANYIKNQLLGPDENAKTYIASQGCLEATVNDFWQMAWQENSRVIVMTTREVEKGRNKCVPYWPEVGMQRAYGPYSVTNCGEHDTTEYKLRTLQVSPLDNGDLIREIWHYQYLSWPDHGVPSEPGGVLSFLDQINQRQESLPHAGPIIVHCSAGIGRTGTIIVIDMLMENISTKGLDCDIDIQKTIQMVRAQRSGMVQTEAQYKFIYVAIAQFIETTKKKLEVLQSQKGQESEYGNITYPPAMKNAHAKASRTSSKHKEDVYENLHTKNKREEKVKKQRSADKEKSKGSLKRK
Description: as §1

ΔSHP2 = biological target: T7, ΔSHP2 (Homo sapiens, UniProt Q06124); test: PTPs activity assay (DiFMUP); assay type: biochemical
T7 construct: His‐ΔSHP2, encompassing the peptide from amino acids 205–593 retaining PTP activity; His; made in house; host or cells: E. coli
T7 sequence (Q06124 205-593): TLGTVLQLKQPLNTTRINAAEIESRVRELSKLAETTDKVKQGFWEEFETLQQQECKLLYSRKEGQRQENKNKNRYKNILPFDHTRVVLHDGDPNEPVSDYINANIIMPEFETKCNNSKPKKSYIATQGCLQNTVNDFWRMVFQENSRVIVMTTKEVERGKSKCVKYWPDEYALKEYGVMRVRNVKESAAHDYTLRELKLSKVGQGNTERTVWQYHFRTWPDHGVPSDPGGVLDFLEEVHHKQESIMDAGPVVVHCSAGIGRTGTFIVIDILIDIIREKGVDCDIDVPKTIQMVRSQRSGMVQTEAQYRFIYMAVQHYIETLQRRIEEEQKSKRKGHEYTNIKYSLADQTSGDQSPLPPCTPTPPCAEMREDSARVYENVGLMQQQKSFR
Description: as §1

SMILES	induction of cell senescence [1]	effect on SHP2 protein stability (CETSA) (SHP2)	effect on cell proliferation in monolayer cell culture mode (A549 and NCI‐H2122 cells)	pIC50 (HePTP)	pIC50 (PTP1B; read-out: IC50 of PTPs PTP1B)	pIC50 (TCPTP)	pIC50 (VHR)	pIC50 (ΔSHP1)	pIC50 (ΔSHP2)	pIC50 (PTP1B)
CN[C@@H](C)C(=O)N[C@H](C(=O)N1CCC[C@H]1c1nc(C(=O)c2ccc(F)cc2)cs1)C1CCCCC1 [LCL‐161]	induced cellular senescence	did not affect SHP2 protein stability	almost no effect							
CC[C@H](NC(=O)[C@H](C)NC)C(=O)N1C[C@@H](O)C[C@H]1Cc1c(-c2[nH]c3cc(F)ccc3c2C[C@@H]2C[C@H](O)CN2C(=O)[C@H](CC)NC(=O)[C@H](C)NC)[nH]c2cc(F)ccc12 [Birinapant]	induced cellular senescence	did not affect SHP2 protein stability	almost no effect							
CC1(C)CCC(CN2CCN(c3ccc(C(=O)NS(=O)(=O)c4ccc(NCC5CCOCC5)c([N+](=O)[O-])c4)c(Oc4cnc5[nH]ccc5c4)c3)CC2)=C(c2ccc(Cl)cc2)C1 [S8048, Venetoclax]				4.70	4.78	5.03	4.43	4.09	5.69	
Cc1cc2c(C(C)C)c(O)c(O)c(C=O)c2c(O)c1-c1c(C)cc2c(C(C)C)c(O)c(O)c(C=O)c2c1O [S2812, AT101]				3.87	4.11	3.70	3.85	3.71	4.40	
CN[C@@H](C)C(=O)N[C@H](C(=O)N1CCC[C@H]1C(=O)N[C@H](C(=O)NCCCCCCNC(=O)[C@@H](NC(=O)[C@@H]1CCCN1C(=O)[C@@H](NC(=O)[C@H](C)NC)C1CCCCC1)C(c1ccccc1)c1ccccc1)C(c1ccccc1)c1ccccc1)C1CCCCC1 [BV‐6] (I: H-[NMeA][Chg]P[Dip] / II: H-[NMeA][Chg]P[Dip]; linker I:C-II:C via Hexamethylenediamine)	induced cellular senescence	did not affect SHP2 protein stability	partially inhibited cell proliferation							
CC(C)=CCC[C@]1(C)C=Cc2c(O)c3c(c(CC=C(C)C)c2O1)O[C@]12C(=C[C@@H]4C[C@H]1C(C)(C)O[C@@]2(C/C=C(/C)C(=O)O)C4=O)C3=O [S2448, Gambogic acid]				< 3.70		3.53	3.91	< 3.70	4.93	4.52
CC1(C)CCC2=C(O1)c1ccccc1C(=O)C2=O [S7261, β‐Lapachone]				< 3.70	< 3.70	< 3.70	< 3.70	< 3.70	4.47	
